Measured values reported in patent US8541343B2, “Chemical compounds and their use as pesticides” (Syngenta Crop Protection, Inc., priority 2009, dated 2013).

SMILES	melting point [°C]
Cc1cc(C)c(C2C(=O)N(N(C)C)C3(CCN(N(C)C)CC3)C2=O)c(C)c1 (centres unmarked) [Compound A1, 1,8-Bis-dimethylamino-3-(2,4,6-trimethyl-phenyl)-1,8-diaza-spiro[4.5]decane-2,4-dione]	80 to 85
CCOC(=O)OC1=C(c2c(C)cc(C)cc2C)C(=O)N(N(C)C)C12CCN(N(C)C)CC2 [Compound A2, Carbonic acid 1,8-bis-dimethylamino-2-oxo-3-(2,4,6-trimethyl-phenyl)-1,8-diaza-spiro[4.5]dec-3-en-4-yl ester ethyl ester]	105
